Tested on: doubly labelled quadruplex F21T (F-21-T, FAM-d[GGGTTAGGGTTAGGGTTAGGG]-TAMRA)
Experiment: FRET-melting assay with F21T quadruplex
Assay type: binding
Conditions: F21T 0.2 μM, Caco.K buffer, 5 molar equivalents of TASQ; means of 3 experiments
Protocol: The lyophilized DNA strands (purchased from Eurogentec, Seraing, Belgium) were firstly diluted at 500 μM in deionized water (18.2 MΩ·cm resistivity). The DNA batch was prepared in a Caco.K buffer, comprised of 10 mM lithium cacodylate buffer (pH 7.2) plus 10 mM KCl/90 mM LiCl.
The quadruplex structure was prepared by mixing 40 μL of the constitutive strand (500 μM) with 8 μL of a lithium cacodylate buffer solution (100 mM, pH 7.2), plus 8 μL of a KCl/LiCl solution (100 mM/900 mM) and 24 μL of water. The final DNA concentration was theoretically 250 μM. The actual concentration of the DNA was determined through a dilution to 1 μM theoretical concentration through UV spectral analysis at 260 nm (after 5 min at 90° C.) with the following molar extinction coefficient values: 268300 M^−1·cm^−1 (F21 T). The higher-order DNA structure was folded as follows: solutions were heated (90° C., 5 min), cooled on ice (7 h) and then stored at least overnight (4° C.). […] Final data were analyzed with Excel (Microsoft Corp.) and OriginPro® 9.1 (OriginLab Corp.). […]
The apparent affinity of each G4-ligands is quantified via fluorescence resonance energy transfer (FRET)-melting experiments. […]

Structure (SMILES) | Thermal stabilization ΔT1/2
NCCN(CC(=O)NCCNC(=O)CN1CCN(CC(=O)NCCNC(=O)CN(CCN)C(=O)Cn2cnc3c(=O)[nH]c(N)nc32)CCN(CC(=O)NCCNC(=O)CN(CCN)C(=O)Cn2cnc3c(=O)[nH]c(N)nc32)C(CNC(=O)CCCC[C@H]2SCC3NC(=O)NC32)CN(CC(=O)NCCNC(=O)CN(CCN)C(=O)Cn2cnc3c(=O)[nH]c(N)nc32)CC1)C(=O)Cn1cnc2c(=O)[nH]c(N)nc21 (some centres unmarked) [BioTASQ] | 2.2 °C
NCCN(CC(=O)NCCNC(=O)CN1CCN(CC(=O)NCCNC(=O)CN(CCN)C(=O)Cn2cnc3c(=O)[nH]c(N)nc32)CCN(CC(=O)NCCNC(=O)CN(CCN)C(=O)Cn2cnc3c(=O)[nH]c(N)nc32)CCN(CC(=O)NCCNC(=O)CN(CCN)C(=O)Cn2cnc3c(=O)[nH]c(N)nc32)CC1)C(=O)Cn1cnc2c(=O)[nH]c(N)nc21 [^PNADOTASQ] | 9.1 °C

From patent publication US12655158B2, “Biomimetic G-quartet compounds” (CENTRE NATIONAL DE LA RECHERCHE SCIENTIFIQUE, priority 2020, dated 2026)
